1 compound from patent EP3255433A1, “METHODS USING BLM AS A MARKER OF MULTIPLE MYELOMA” (priority 2016, dated 2017) can be followed below.

Read-outs that look alike come from different tables or passages of the source.

The IC50 is the concentration at which inhibition is half-maximal.

The subject of assay [1] is primary myeloma cells of patients. Put plainly: Cytotoxicity on primary myeloma cells of patients (CD138 flow cytometry). It counts as cell-based, human. Conditions: 4 days, IL-6 (1 ng/mL), co-cultured with bone marrow environment, n=7. The text has this:
(§1) • Figure 1: BLM expression in normal and malignant plasma cells. BLM expression in normal BMPCs (N = 5), in MM cells of patients with intramedullary MM (N = 206) and in HMCLs (N = 26). Ordinate : BLM expression, as expressed in Affimetrix signal arbitrary units. Abscissa : from left to right : BMPCs (n=5); MMCs (n=206) and HMCLs (n=26). • Figure 2: BLM gene expression in the 7 MM molecular subgroups of the TT2-cohort. PR = proliferation, LB = low bone disease, MS = MMSET, HY = hyperdiploid, CD1 = cyclin D1/D3, CD2 = cyclin D1/D3, MF = MAF. * indicates higher score value compared to all other groups with P<0.05. Ordinate : BLM expression, as expressed in Affimetrix signal arbitrary units. Abscissa : from left to right: PR, LB, MS, HY, CD1, CD2 and MF . • Figure 3: BLM expression in MMCs could predict for shorter overall and event free survival in independent cohorts of patients. • Figure 3A : Patients of the HM cohort (n = 206) were ranked according to increasing BLM expression and a maximum difference in overall survival (OS) was obtained using the Maxstat R function. Upper curve : BLM^Low; Lower curve : BLM^High. Ordinate : Overall Survival (OS). Abscissa : Days from diagnosis. • Figure 3B : BLM expression is also associated with a shorter event free survival (EFS) in the HM cohort (n = 206). Upper curve : BLM^Low; Lower curve : BLM^High. Ordinate : Effective Survival (EFS)). […] At day 4 of culture, the viability was assessed by CellTiter-Glo® Luminescent Cell Viability Assay. […] Data are mean values ± standard deviation (SD) of five experiments determined on sextuplet culture wells. • Figure 4A : Growth inhibition of a plurality of MM cell lines in the presence of the ML216 BLM inhibitor. Ordinate : cell growth inhibition, as expressed as percent of control cells without ML216 :Cell lines tested : □ XG1 cells; ◊ XG7 cells; ○ XG12 cells; ◆XG25 cells; ● XG19 cells; + LP1 cells. […] At day 4 of culture, the viability and total cell counts were assessed and the percentage of CD138 viable plasma and non-myeloma cells was determined by flow cytometry. […]
In general terms: A flow cytometer gives signals particle by particle.

Assay [2] has as its system human myeloma cell lines (HMCL). Put plainly: Cell growth inhibition of human myeloma cell lines (CellTiter-Glo Luminescent Cell Viability Assay). Type of assay: cell-based. Conditions: 96 h, 4 days culture, 2 ng/ml interleukin six.
Text: as §1, with “units.” for “units. Abscissa : from left to right: PR, LB, MS, HY, CD1, CD2 and MF . • Figure 3: BLM expression in MMCs could predict for shorter overall and event free survival in independent cohorts of patients. • Figure 3A : Patients of the HM cohort (n = 206) were ranked according to increasing BLM expression and a maximum difference in overall survival (OS) was obtained using the Maxstat R function. Upper curve : BLM^Low; Lower curve : BLM^High. Ordinate : Overall Survival (OS). Abscissa : Days from diagnosis. • Figure 3B : BLM expression is also associated with a shorter event free survival (EFS) in the HM cohort (n = 206). Upper curve : BLM^Low; Lower curve : BLM^High. Ordinate : Effective Survival (EFS)).”
In general terms: In ATP-based viability assays light output follows the ATP content of the culture.

Turning to `O=C(Nc1ccc(F)c(C(F)(F)F)c1)Nc1nnc(-c2ccncc2)s1` [ML216], the “reduction of the median number of viable myeloma cells” value in assay [1] (3 µM, P = 0.001) was found to be 54%; in assay [1] (6 µM, P < 0.001) it was 60%; in assay [1] (10 µM, P <0.001), 74%. For the same compound, the IC50 in assay [2] (median over 6 HMCL (XG-1, XG-7, XG-12, XG-25, XG-19, LP1), read-out: median IC50) was 4.1 µM; in assay [2] (range over 6 HMCL, read-out: IC50 (range)), 1.2 to 30 µM.
